Structures can show the parent of a compound that is named as a salt. Where two headings read alike, the source gives them in different places.
Biological target: SARS-CoV-2 3CLpro (Severe acute respiratory syndrome coronavirus 2, UniProt P0DTD1)
Test: biochemical
Type: biochemical
Parameters: Replicate_1 / Replicate_2 / mean / mean (LOPAC_screen_w_protease): unit not given here
Details: for inhibition at 5 µM: 4 h; for mean (LOPAC screen with protease) / Replicate_1 (LOPAC screen with protease) / Replicate_2 (LOPAC screen with protease): primary screen at 5 µM
[1] = sheet LOPAC_screen_w_protease, primary screen of LOPAC1280 at 5 µM with protease, mean of the two replicates
[2] = sheet LOPAC_screen_w_protease, primary screen of LOPAC1280 at 5 µM with protease, replicate 1
[3] = sheet LOPAC_screen_w_protease, primary screen of LOPAC1280 at 5 µM with protease, replicate 2
[4] = sheet LOPAC_screen_w_protease, primary screen with protease, compound at 5 µM, mean of two replicates
[5] = sheet LOPAC_screen_w_protease, primary screen with protease, compound at 5 µM, replicate 1
[6] = sheet LOPAC_screen_w_protease, primary screen with protease, compound at 5 µM, replicate 2
[7] = LOPAC1280 primary screen with protease, 5 µM compound, mean of the two replicates
[8] = LOPAC1280 primary screen with protease, 5 µM compound, replicate 1
[9] = LOPAC1280 primary screen with protease, 5 µM compound, replicate 2
[10] = sheet LOPAC_screen_w_protease, LOPAC1280 at 5 µM, mean of two replicates
[11] = sheet LOPAC_screen_w_protease, LOPAC1280 at 5 µM, replicate 1
[12] = sheet LOPAC_screen_w_protease, LOPAC1280 at 5 µM, replicate 2
[13] = sheet LOPAC_screen_w_protease, LOPAC1280 primary screen with protease, 5 µM compound, mean of the two replicates, read-out: mean
[14] = sheet LOPAC_screen_w_protease, LOPAC1280 primary screen with protease, 5 µM compound, replicate 1, read-out: Replicate_1
[15] = sheet LOPAC_screen_w_protease, LOPAC1280 primary screen with protease, 5 µM compound, replicate 2, read-out: Replicate_2
[16] = sheet LOPAC_screen_w_protease, primary screen with protease, mean of two replicates
[17] = sheet LOPAC_screen_w_protease, primary screen with protease, replicate 1
[18] = sheet LOPAC_screen_w_protease, primary screen with protease, replicate 2
[19] = LOPAC1280 primary screen with protease, 5 µM compound, replicate 1, read-out: Replicate_1 (LOPAC_screen_w_protease)
[20] = LOPAC1280 primary screen with protease, 5 µM compound, replicate 2, read-out: Replicate_2 (LOPAC_screen_w_protease)
[21] = LOPAC1280 primary screen with protease, 5 µM compound, mean of two replicates
[22] = sheet LOPAC_screen_w_protease, primary screen with protease, 5 µM, mean of two replicates
[23] = sheet LOPAC_screen_w_protease, primary screen with protease, 5 µM, replicate 1
[24] = sheet LOPAC_screen_w_protease, primary screen with protease, 5 µM, replicate 2
[25] = sheet LOPAC_screen_w_protease, mean of two replicates
[26] = sheet LOPAC_screen_w_protease, replicate 1
[27] = sheet LOPAC_screen_w_protease, replicate 2
[28] = sheet LOPAC_screen_w_protease, LOPAC1280 primary screen at 5 µM, with protease, replicate 1
[29] = sheet LOPAC_screen_w_protease, LOPAC1280 primary screen at 5 µM, with protease, replicate 2

Compound: N[C@@H]1CONC1=O (racemic) [DL-Cycloserine]
- mean [1]: 3.186
- Replicate_1 [2]: 2.383
- Replicate_2 [3]: 3.989

Compound: COc1ccc(C(=O)NCc2cccnc2)cc1C(=O)NCc1cccnc1 [Picotamide]
- inhibition at 5 µM (sheet LOPAC_screen_w_protease, LOPAC1280 primary screen at 5 µM, with protease, mean of the two replicates, read-out: mean): 0.551%
- inhibition at 5 µM (sheet LOPAC_screen_w_protease, LOPAC1280 primary screen at 5 µM, with protease, replicate 1, read-out: Replicate_1): 1.7%
- inhibition at 5 µM (sheet LOPAC_screen_w_protease, LOPAC1280 primary screen at 5 µM, with protease, replicate 2, read-out: Replicate_2): -0.597%

Compound: C=C1C(=O)O[C@H]2[C@H]1CC/C(C)=C/CC[C@@]1(C)O[C@@H]21 [Parthenolide]
- inhibition at 5 µM (sheet LOPAC_screen_w_protease, primary screen of LOPAC1280 at 5 µM with protease, mean of the two replicates, read-out: mean): 3.43%
- inhibition at 5 µM (sheet LOPAC_screen_w_protease, primary screen of LOPAC1280 at 5 µM with protease, replicate 1, read-out: Replicate_1): 3.99%
- inhibition at 5 µM (sheet LOPAC_screen_w_protease, primary screen of LOPAC1280 at 5 µM with protease, replicate 2, read-out: Replicate_2): 2.86%

Compound: C[C@@H](NC(=O)/C(C#N)=C/c1ccc(O)c(O)c1)c1ccccc1 [Tyrphostin AG 527]
- mean [4]: 2.942
- Replicate_1 [5]: 4.113
- Replicate_2 [6]: 1.771

Compound: CCCCCCCCCCCCCCCCCC(=O)NCC(COP(=O)([O-])OCC[N+](C)(C)C)OCC (racemic)
- mean [4]: 3.086
- Replicate_1 [5]: 5.031
- Replicate_2 [6]: 1.141

Compound: Cc1cn([C@H]2C=C[C@@H](CO)O2)c(=O)[nH]c1=O [2',3'-didehydro-3'-deoxythymidine]
- mean (LOPAC_screen_w_protease) [7]: 1.906
- Replicate_1 (LOPAC_screen_w_protease) [8]: 2.073
- Replicate_2 (LOPAC_screen_w_protease) [9]: 1.738

Compound: O=[N+]([O-])c1cccc2c(Br)n[nH]c12 [3-Bromo-7-nitroindazole]
- mean (LOPAC_screen_w_protease) [7]: 1.829
- Replicate_1 (LOPAC_screen_w_protease) [8]: 2.045
- Replicate_2 (LOPAC_screen_w_protease) [9]: 1.613

Compound: NC(=O)c1cnccn1 [Pyrazinecarboxamide]
- mean [10]: 0.9233
- Replicate_1 [11]: 1.572
- Replicate_2 [12]: 0.2741

Compound: CC#C[C@]1(O)CC[C@H]2[C@@H]3CCC4=CC(=O)CCC4=C3[C@@H](c3ccc(N(C)C)cc3)C[C@@]21C [Mifepristone]
- inhibition at 5 µM [13]: 4.62%
- inhibition at 5 µM [14]: 3.53%
- inhibition at 5 µM [15]: 5.7%

Compound: CSc1nc(N)c2ncn([C@@H]3O[C@H](COP(=O)(O)OP(=O)(O)O)[C@@H](O)[C@H]3O)c2n1.[Na].[Na].[Na]
- mean (sheet LOPAC_screen_w_protease, LOPAC1280 primary screen with protease, 5 µM compound, mean of the two replicates): 4.674
- Replicate_1 (sheet LOPAC_screen_w_protease, LOPAC1280 primary screen with protease, 5 µM compound, replicate 1): 4.609
- Replicate_2 (sheet LOPAC_screen_w_protease, LOPAC1280 primary screen with protease, 5 µM compound, replicate 2): 4.739

Compound: O=c1[nH]c2cc(Cl)ccc2c(O)c1-c1cccc(Oc2ccccc2)c1 [L-701,324]
- mean [16]: 2.464
- Replicate_1 [17]: 2.862
- Replicate_2 [18]: 2.066

Compound: C[C@@H]1O[C@@H]1P(=O)(O)O [Phosphomycin disodium]
- inhibition at 5 µM (sheet LOPAC_screen_w_protease, primary screen with protease, 5 µM, mean of two replicates, read-out: mean): -0.258%
- inhibition at 5 µM (sheet LOPAC_screen_w_protease, primary screen with protease, 5 µM, replicate 1, read-out: Replicate_1): -0.0304%
- inhibition at 5 µM (sheet LOPAC_screen_w_protease, primary screen with protease, 5 µM, replicate 2, read-out: Replicate_2): -0.485%

Compound: CC(C)[C@@H]1NC(=O)[C@H](CCCCN)NC(=O)[C@@H](Cc2c[nH]c3ccccc23)NC(=O)[C@H](Cc2ccc(O)cc2)NC(=O)[C@H](C)N(C)C(=O)[C@H](Cc2ccccc2)NC1=O [Seglitide]
- inhibition at 5 µM [19]: 3.58%
- inhibition at 5 µM [20]: -0.291%
- mean (LOPAC_screen_w_protease) [21]: 1.643

Compound: CC(C[N+](C)(C)C)OC(N)=O (stereo not shown) [Bethanechol chloride]
- inhibition at 5 µM [19]: 0.465%
- inhibition at 5 µM [20]: 2.25%
- mean (LOPAC_screen_w_protease) [21]: 1.356

Compound: Br.NCc1cc(O)no1 [Muscimol hydrobromide]
- mean [22]: 0.06352
- Replicate_1 [23]: 2.752
- Replicate_2 [24]: -2.625

Compound: Cl.Clc1ccc(Cn2c(CN3CCCC3)nc3ccccc32)cc1 [Clemizole hydrochloride]
- mean [4]: 3.083
- Replicate_1 [5]: 2.873
- Replicate_2 [6]: 3.2929

Compound: Oc1ccc(/C=C/c2cc(O)cc(O)c2)cc1 [Resveratrol]
- inhibition at 5 µM (read-out: Replicate_2): -6.92%

Compound: COC(=O)Nc1nc2ccc(C(=O)c3cccs3)cc2[nH]1 [Nocodazole]
- inhibition at 5 µM [13]: 4.68%
- inhibition at 5 µM [14]: 2.87%
- inhibition at 5 µM [15]: 6.49%

Compound: NS(=O)(=O)c1cccc2c1c([N+](=O)[O-])cc1nc([O-])c([O-])nc12.[Na+].[Na+] [NBQX disodium]
- mean (LOPAC screen with protease) [25]: 8.586
- Replicate_1 (LOPAC screen with protease) [26]: 5.7201
- Replicate_2 (LOPAC screen with protease) [27]: 11.4514

Compound: NCCc1ccc(O)c(O)c1 [Dopamine hydrochloride]
- inhibition at 5 µM (read-out: Replicate_1 (LOPAC screen with protease)): 16.2%
- inhibition at 5 µM (read-out: Replicate_2 (LOPAC screen with protease)): 14.6%
- inhibition at 5 µM (read-out: mean (LOPAC screen with protease)): 15.4%

Compound: COc1ccccc1N1CCN(CCN2C(=O)CC3(CCCC3)CC2=O)CC1.Cl.Cl [BMY 7378 dihydrochloride]
- mean [4]: 2.822
- Replicate_1 [5]: 2.1144
- Replicate_2 [6]: 3.53

Compound: CC(C)N(CCC(=O)c1ccc2ccccc2c1)Cc1ccccc1.Cl [ZM 39923 hydrochloride]
- mean (LOPAC screen with protease) [25]: 93.4745
- Replicate_1 (LOPAC screen with protease) [26]: 92.2854
- Replicate_2 (LOPAC screen with protease) [27]: 94.6636

Compound: CCc1ccccc1OC[C@@H](O)CN[C@H]1CCCc2ccccc21.O=C(O)C(=O)O [SR 59230A oxalate]
- mean [22]: -0.0002221
- Replicate_1 [23]: 1.088
- Replicate_2 [24]: -1.089

Compound: CC1(C)CCC=[N+]1[O-] [5,5-Dimethyl-1-pyrroline-N-oxide]
- mean [10]: 1.097
- Replicate_1 [11]: 0.9422
- Replicate_2 [12]: 1.253

Compound: CNC(=O)OCC[N+](C)(C)C [Methylcarbamylcholine chloride]
- inhibition at 5 µM (sheet LOPAC_screen_w_protease, primary screen with protease, compound at 5 µM, mean of two replicates, read-out: mean): 3%
- inhibition at 5 µM (sheet LOPAC_screen_w_protease, primary screen with protease, compound at 5 µM, replicate 1, read-out: Replicate_1): 4.73%
- inhibition at 5 µM (sheet LOPAC_screen_w_protease, primary screen with protease, compound at 5 µM, replicate 2, read-out: Replicate_2): 1.26%

Compound: NC/C=C/C(=O)O [(E)-4-amino-2-butenoic acid]
- mean (LOPAC_screen_w_protease) [21]: 1.558
- Replicate_1 (LOPAC_screen_w_protease) [8]: 1.878
- Replicate_2 (LOPAC_screen_w_protease) [9]: 1.238

Compound: Cl.NCCC[C@](N)(C(=O)O)C(F)F (racemic)
- mean [4]: 3.129
- Replicate_1 [5]: 3.2986
- Replicate_2 [6]: 2.959

Compound: CC#CCOC(=O)c1c(C)nc2sc3c(c2c1N)CCC(O)C3 (stereo not shown) [SB 205384]
- mean (sheet LOPAC_screen_w_protease, LOPAC1280 primary screen at 5 µM, with protease, mean of two replicates): -1.612
- Replicate_1 [28]: 2.126
- Replicate_2 [29]: -5.349

Compound: Cc1ccc(Cl)c(Nc2ccccc2C(=O)O)c1Cl [Meclofenamic acid sodium]
- inhibition at 5 µM (read-out: Replicate_1): 1.45%
- inhibition at 5 µM (read-out: Replicate_2): 5.52%
- inhibition at 5 µM (read-out: mean): 3.48%

Compound: CCCCCCCC/C=C\CCCCCCCC(=O)NCCO [N-Oleoylethanolamine]
- mean [1]: 3.1732
- Replicate_1 [2]: 4.947
- Replicate_2 [3]: 1.4

Compound: CC1(C)C(=O)N(CCN2CCC(C(=O)c3ccc(F)cc3)CC2)c2ccccc21.Cl [LY-310,762 hydrochloride]
- mean (LOPAC_screen_w_protease) [21]: 1.717
- Replicate_1 (LOPAC_screen_w_protease) [8]: 1.617
- Replicate_2 (LOPAC_screen_w_protease) [9]: 1.816

Compound: Cc1ccccc1N1CCN(S(=O)(=O)CC23CCC(CC2NC(=O)C(N)CCS(C)(=O)=O)C3(C)C)CC1.Cl [L-368,899]
- mean [16]: 2.3895
- Replicate_1 [17]: 2.509
- Replicate_2 [18]: 2.27

Compound: C=C(C)[C@H]1CN[C@H](C(=O)O)[C@H]1CC(=O)O [Kainic acid]
- mean (LOPAC_screen_w_protease): 1.974
- inhibition at 5 µM (read-out: Replicate_1 (LOPAC_screen_w_protease)): 1.88%
- inhibition at 5 µM (read-out: Replicate_2 (LOPAC_screen_w_protease)): 2.07%

Compound: Cl.NCC#Cc1ccccc1 [3-Phenylpropargylamine hydrochloride]
- mean (sheet LOPAC_screen_w_protease, LOPAC1280 primary screen at 5 µM, with protease, mean of the two replicates): 0.744
- Replicate_1 [28]: 1.313
- Replicate_2 [29]: 0.1753

Reference: PMC7587356, “High-Throughput Screening for Inhibitors of the SARS-CoV-2 Protease Using a FRET-Biosensor” (Molecules, 2020)
